According to patent US20180353501A1 (Arvinas, Inc., priority 2017, published 2018):

Target: T1, FLAG-p38δ (Homo sapiens, UniProt O15264)
T1 construct: expressed in transfected cells; host or cells: HeLa cells, transient transfection with Lipofectamine 2000
T1 sequence (O15264 1-365): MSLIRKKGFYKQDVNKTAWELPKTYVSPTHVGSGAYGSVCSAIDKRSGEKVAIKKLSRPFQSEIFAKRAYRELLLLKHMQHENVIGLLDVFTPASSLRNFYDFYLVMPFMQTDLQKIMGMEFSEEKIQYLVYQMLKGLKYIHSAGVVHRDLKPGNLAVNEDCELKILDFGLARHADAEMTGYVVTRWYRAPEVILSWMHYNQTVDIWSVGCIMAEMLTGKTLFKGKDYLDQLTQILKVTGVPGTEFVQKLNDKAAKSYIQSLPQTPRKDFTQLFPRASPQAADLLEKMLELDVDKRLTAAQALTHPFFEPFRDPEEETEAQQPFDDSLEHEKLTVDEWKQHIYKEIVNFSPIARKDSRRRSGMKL
Test: TUBE1 immunoprecipitation of polyubiquitinated p38δ, HeLa cells
Assay type: cell-based
Details: 1 μM, 3 hours
Description: FIG. 18. Exemplary compound 46 induces polyubiquitination of p38δ. (A) HeLa cells were co-transfected with HA-Ub and FLAG p38δ and treated with vehicle (DMSO), 1 μM of compound 50, or 1 μM of compound 46 for 3 hours. Lysates were immunoprecipitated with tandem ubiquitin binding entity (TUBE1) agarose beads and assessed by western blots detecting FLAG (p38δ). TUBE1 binds tetra ubiquitin chains with high affinity, thereby enriching for polyubiquitinated proteins. In this assay, HA (Ub) serves as an immunoprecipitation control for poly-Ub TUBE1 enrichment.
Based on these exemplary compound 50-induced and exemplary compound 46-induced ternary complex affinity differences, both in vitro and in cells, whether they were predictive of PROTAC-induced p38δ cellular ubiquitination was examined.
TUBE1 immunoprecipitation experiments were carried out exactly as described above, except for the fact that 1 mg of normalized HeLa lysate was loaded onto 20 μL TUBE1 agarose (LifeSensors) resin per sample.

- TUBE1-reactivity (poly-Ub p38δ): increased TUBE1-reactivity
Structure (SMILES): COc1cc2c(Oc3ccc(NC(=O)C4(C(=O)Nc5ccc(F)cc5)CC4)cc3F)ccnc2cc1OCCOCCOCCOc1cc(-c2scnc2C)ccc1CNC(=O)[C@@H]1C[C@@H](O)CN1C(=O)[C@H](C(C)C)N1Cc2ccccc2C1=O [compound 46]
